Reference: article PMC6500773 (Psychopharmacology, 2018)
Like-named read-outs stand apart in the source and are kept apart here.

Key:
[1] = target: T1, hDAT (Homo sapiens, UniProt Q01959); experiment: Inhibition of [125I]RTI-55 binding, HEK-hDAT membranes; conditions: for fold decrease in hDAT affinity: compared to pentedrone
[2] = target: T2, hNET (Homo sapiens, UniProt P23975); experiment: cell-based
[3] = target: T2, hNET; experiment: biochemical; format: binding
[4] = target: T3, hSERT (Homo sapiens, UniProt P31645); experiment: Inhibition of [125I]RTI-55 binding, HEK-hSERT membranes
[5] = target: T1, hDAT; experiment: Inhibition of [3H]DA uptake by HEK-hDAT cells; format: cell-based; conditions: for Ratio DAT/SERT: 1/(DAT IC50) divided by 1/(SERT IC50), uptake, higher = more DAT selective
[6] = target: T3, hSERT; experiment: Inhibition of [3H]5-HT uptake by HEK-hSERT cells; format: cell-based; conditions: for fold increase in hSERT uptake potency: compared to pentedrone; for selectivity for SERT over DAT (uptake potency): uptake inhibition potencies
[7] = target: T3, hSERT; experiment: Drug-induced release of preloaded [3H]5-HT from HEK-hSERT cells; format: cell-based; conditions: for releasing efficacy at hSERT: [3H]5-HT release; for % maximum release ± sem, hSERT [3H]5-HT: relative to maximal AUC induced by METH (0.3–1 mM)
[8] = target: T2, hNET; experiment: Drug-induced release of preloaded [3H]NE from HEK-hNET cells; format: cell-based; conditions: for EC50: read-out: Drug-induced release of [3H]neurotransmitter EC50 ± sem, hNET [3H]NE, HEK-hNET cells; for % maximum release ± sem, hNET [3H]NE: relative to maximal AUC induced by METH (0.3 or 1 μM); for releasing efficacy at hNET: [3H]NE release
[9] = target: T1, hDAT; experiment: Drug-induced release of preloaded [3H]DA from HEK-hDAT cells; format: cell-based; conditions: for % maximum release ± sem, hDAT [3H]DA: relative to maximal AUC induced by METH (1 or 10 μM); for releasing efficacy at hDAT: [3H]DA release
[10] = read-out: Inhibition of [125I]RTI-55 binding Ki ± sem, hDAT, HEK-hDAT membranes
[11] = read-out: Inhibition of [3H]neurotransmitter uptake IC50 ± sem, hNET [3H]NE, HEK-hNET cells
[12] = read-out: Inhibition of [125I]RTI-55 binding Ki ± sem, hNET, HEK-hNET membranes

T3 sequence (P31645 whole entry): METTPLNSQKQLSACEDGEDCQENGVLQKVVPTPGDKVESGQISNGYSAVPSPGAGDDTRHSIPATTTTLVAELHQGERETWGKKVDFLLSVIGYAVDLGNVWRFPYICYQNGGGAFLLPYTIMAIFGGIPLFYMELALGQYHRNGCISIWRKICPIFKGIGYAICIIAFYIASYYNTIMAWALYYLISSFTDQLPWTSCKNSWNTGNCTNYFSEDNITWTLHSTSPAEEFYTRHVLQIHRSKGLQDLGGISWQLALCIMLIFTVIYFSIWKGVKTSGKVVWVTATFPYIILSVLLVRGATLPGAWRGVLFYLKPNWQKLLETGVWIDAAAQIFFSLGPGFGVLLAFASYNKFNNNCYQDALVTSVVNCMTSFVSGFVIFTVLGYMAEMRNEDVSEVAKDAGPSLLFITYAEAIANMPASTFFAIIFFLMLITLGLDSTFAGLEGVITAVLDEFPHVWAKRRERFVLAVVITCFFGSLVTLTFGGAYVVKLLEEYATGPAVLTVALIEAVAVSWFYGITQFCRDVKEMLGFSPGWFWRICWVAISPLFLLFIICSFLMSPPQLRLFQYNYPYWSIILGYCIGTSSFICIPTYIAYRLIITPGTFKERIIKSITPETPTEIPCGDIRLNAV
T1 sequence (Q01959 whole entry): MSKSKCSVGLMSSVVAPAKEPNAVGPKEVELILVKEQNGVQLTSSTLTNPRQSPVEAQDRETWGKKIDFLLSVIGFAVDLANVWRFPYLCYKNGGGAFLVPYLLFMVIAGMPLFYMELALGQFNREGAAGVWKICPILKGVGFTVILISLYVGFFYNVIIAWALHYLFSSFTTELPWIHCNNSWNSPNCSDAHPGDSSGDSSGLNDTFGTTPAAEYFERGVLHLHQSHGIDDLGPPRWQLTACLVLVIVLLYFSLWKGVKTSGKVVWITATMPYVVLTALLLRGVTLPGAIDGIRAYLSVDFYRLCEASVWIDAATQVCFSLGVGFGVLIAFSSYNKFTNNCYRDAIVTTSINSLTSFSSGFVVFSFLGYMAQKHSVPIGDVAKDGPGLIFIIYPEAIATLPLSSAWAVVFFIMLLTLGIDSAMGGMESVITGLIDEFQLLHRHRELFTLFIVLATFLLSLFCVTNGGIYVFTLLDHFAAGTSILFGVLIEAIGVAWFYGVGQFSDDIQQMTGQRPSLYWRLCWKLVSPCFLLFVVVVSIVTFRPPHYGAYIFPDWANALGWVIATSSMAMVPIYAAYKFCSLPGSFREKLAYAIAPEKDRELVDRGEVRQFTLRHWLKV
T2 sequence (P23975 whole entry): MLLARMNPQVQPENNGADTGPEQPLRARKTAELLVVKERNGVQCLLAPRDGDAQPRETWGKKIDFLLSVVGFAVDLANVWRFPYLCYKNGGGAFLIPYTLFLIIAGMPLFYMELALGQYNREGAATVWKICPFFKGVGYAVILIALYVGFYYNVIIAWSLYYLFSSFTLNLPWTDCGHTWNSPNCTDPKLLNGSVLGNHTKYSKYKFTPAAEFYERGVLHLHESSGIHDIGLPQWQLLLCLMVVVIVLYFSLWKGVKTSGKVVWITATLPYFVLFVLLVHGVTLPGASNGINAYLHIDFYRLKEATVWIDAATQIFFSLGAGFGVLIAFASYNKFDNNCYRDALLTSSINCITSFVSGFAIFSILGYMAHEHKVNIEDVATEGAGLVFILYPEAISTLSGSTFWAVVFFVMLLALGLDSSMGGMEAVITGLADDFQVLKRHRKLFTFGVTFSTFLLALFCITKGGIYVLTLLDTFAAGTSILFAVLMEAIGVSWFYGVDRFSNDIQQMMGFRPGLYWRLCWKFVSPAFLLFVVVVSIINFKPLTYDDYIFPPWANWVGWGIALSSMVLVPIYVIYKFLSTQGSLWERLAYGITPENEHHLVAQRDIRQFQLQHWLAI

SMILES	Ratio DAT/SERT [5]	Ki [1, 10] [nM]	IC50 [2, 11] [nM]	Ki [3, 12] [nM]	% maximum release ± sem, hNET [3H]NE [8] [%]	% maximum release ± sem, hDAT [3H]DA [9] [%]	also measured
CCCC(Cc1ccccc1)N1CCCC1 (centres unmarked) [Prolintane, 1-[1-(phenylmethyl)butyl]-pyrrolidine]	11						Ki [1]: 219 ± 19 nM; IC50 [2]: 46 ± 6.8 nM; Ki [3]: 560 ± 190 nM; Ki [4]: 2520 ± 330 nM; IC50 [5]: 100 ± 21 nM; IC50 [6]: 1110 ± 350 nM; fold higher hSERT uptake potency ([6]; compared to 4-F-α-PVP): 40 fold
CCCC(C(=O)c1ccc(F)cc1)N1CCCC1 (stereo not drawn) [4-F-α-PVP, 4-fluoro-α–pyrrolidinopentiophenone]	360	376 ± 70					IC50 ([2]; read-out: Inhibition of [3H]neurotransmitter uptake IC50 ± sem, hNET [3H]NE): 118 nM; Ki ([3]; read-out: Inhibition of [125I]RTI-55 binding Ki ± sem, hNET): 1100 nM
CCCNC(C)C(=O)c1ccc2c(c1)OCO2 (centres unmarked) [PRONE, 3,4-methylenedioxy-N-propylcathinone]	0.95	6800 ± 1900	6040 ± 890	22500 ± 8500			
CCCC(NC)C(=O)c1ccc(Cl)cc1 (centres unmarked) [4-CPD, 4-chloro pentedrone]	1.3	1620 ± 400	470 ± 140	4540 ± 890			fold decrease in hDAT affinity [1]: 4- to 5 fold; fold increase in hSERT uptake potency [6]: 15- to 17 fold
CCCCC(C(=O)c1ccc(C)cc1)N1CCCC1 (stereo not drawn) [4-Me-α-PHP, 4’-methyl-α–pyrrolidinohexanophenone]	120						Ki [1]: 23 ± 6.2 nM; IC50 [2]: 42 ± 11 nM; Ki [3]: 750 ± 160 nM; Ki [4]: 4780 ± 260 nM; IC50 [5]: 13.2 ± 3.6 nM; IC50 [6]: 1580 ± 400 nM
CCCCC(C(=O)c1ccc2c(c1)OCO2)N1CCCC1 (stereo not drawn) [3,4-MDPHP, 3,4-methylenedioxy-α–pyrrolidinohexanophenone]	160						Ki [1]: 19.2 ± 5.1 nM; IC50 [2]: 47 ± 10 nM; Ki [3]: 935 ± 93 nM; Ki [4]: 2430 ± 510 nM; IC50 [5]: 8.4 ± 2.2 nM; IC50 [6]: 1340 ± 410 nM
CC(N)Cc1ccc2ccoc2c1 (stereo not drawn) [6-APB, α-methyl-6-benzofuranethanamine]	2.4	1040 ± 160	19.8 ± 4.4	2450 ± 200	69 ± 12	68.2 ± 9.0	releasing efficacy at hSERT [7]: fully efficacious releaser; % maximum release ± sem, hSERT [3H]5-HT [7]: 119 ± 16%; EC50 [8]: 51 ± 12 nM
CCCC(C(=O)c1ccc(Cl)cc1)N1CCCC1 (stereo not drawn) [4-Cl-α-PVP, 4’-chloro-α–pyrrolidinopentiophenone]	83	61 ± 15	29.1 ± 6.7	281 ± 16	9.4 ± 6.0	<1	releasing efficacy at hSERT [7]: minimal to no releasing efficacy; % maximum release ± sem, hSERT [3H]5-HT [7]: <1%; releasing efficacy at hNET [8]: minimal to no releasing efficacy; EC50 [8]: > 10000 nM; releasing efficacy at hDAT [9]: minimal to no releasing efficacy
CCCC(NCC)C(=O)c1ccc(C)cc1 (stereo not drawn) [4-MEAP, 4-methyl-α-ethylaminopentiophenone]	6.4	123 ± 26	83 ± 18	576 ± 85			fold increase in hSERT affinity ([4]; compared to pentedrone): 20 fold; fold decrease in hDAT selectivity ([5]; compared to pentedrone): 8 fold; fold decrease in DAT selectivity ([5]; compared to α-EPP): 10 fold; fold increase in hSERT uptake potency [6]: 8 fold
CCCC(NCC)C(=O)c1ccccc1 (stereo not drawn) [α-EPP, α-ethylaminopentiophenone]	64	182 ± 22	101 ± 24	700 ± 180			
CCC(C(=O)c1ccc2c(c1)OCO2)N(C)C (centres unmarked) [Dibutylone, bk-DMBDB]	>32	581 ± 76	923 ± 44	8400 ± 2100			
CCNC(C)C(=O)c1ccc(Cl)cc1 (centres unmarked) [4-CEC, 4-Cl-ethcathinone]	0.39	4170 ± 530	1720 ± 240	16300 ± 5700	5.9 ± 2.5	1.17 ± 0.05	releasing efficacy at hSERT [7]: full releasing efficacy; releasing efficacy at hNET [8]: minimal releasing efficacy; EC50 [8]: > 100000 nM; releasing efficacy at hDAT [9]: minimal releasing efficacy; selectivity for SERT over DAT (uptake potency) [6]: 3 fold
CNC(C)C(=O)c1cccc(C)c1 (centres unmarked) [3-MMC, 3-methylmethcathinone]	10	6330 ± 720	84 ± 23	2850 ± 720			fold higher hSERT affinity ([4]; compared to MCAT): ~ 40 fold; fold higher hSERT uptake potency ([6]; compared to MCAT): 6.5 fold
CCCCC(C(=O)c1ccc(F)cc1)N1CCCC1 (stereo not drawn) [4-F-α-PHP, 4’-fluoro-α–pyrrolidinohexanophenone]	240						Ki [1]: 122 ± 27 nM; IC50 [2]: 218 ± 29 nM; Ki [3]: 1730 ± 250 nM; Ki [4]: 8010 ± 840 nM; IC50 [5]: 38.2 ± 4.4 nM; IC50 [6]: 9110 ± 540 nM
CC(C(=O)c1ccc(Cl)cc1)N1CCCC1 (stereo not drawn) [4-Cl-α-PPP, 4’-chloro-α-pyrrolidinopropiophenone]	8.8						Ki [1]: 1300 ± 450 nM; IC50 [2]: 1420 ± 380 nM; Ki [3]: 3580 ± 920 nM; Ki [4]: 12700 ± 3200 nM; IC50 [5]: 730 ± 130 nM; IC50 [6]: 6400 ± 1500 nM
CCCCC(NCC)C(=O)c1ccccc1 (stereo not drawn) [N-Et-Hexedrone, α-ethylaminohexanophenone]	100	171 ± 38	97.8 ± 8.3	1260 ± 43			
CNC(C)Cc1ccc2ccoc2c1 (stereo not drawn) [6-MAPB, N,α-dimethyl-6-benzofuranethanamine]	9.5	599 ± 9.9	33.1 ± 2	1480 ± 270	60 ± 11	40.6 ± 8.7	releasing efficacy at hSERT [7]: fully efficacious; % maximum release ± sem, hSERT [3H]5-HT [7]: 107.0 ± 2.3%; EC50 [8]: 640 ± 210 nM
CCCCCCC(C(=O)c1ccccc1)N1CCCC1 (centres unmarked) [PV9, 1-phenyl-2-(pyrrolidin-1-yl)octan-1-one]	>150						Ki [1]: 18 ± 3.7 nM; Ki [3]: 468 ± 33 nM; Ki [4]: 2860 ± 430 nM; IC50 [5]: 50.2 ± 6.6 nM; IC50 [6]: > 7400 nM
CCCC(C(=O)c1ccc2c(c1)OCO2)N(C)C (centres unmarked) [bk-DMBDP, N,N-dimethylpentylone]	11	354 ± 73	212 ± 68	2000 ± 140			
CNC(C)C(=O)c1ccccc1 (centres unmarked) [MCAT, methcathinone, reference compound]	130	7520 ± 990	45.2 ± 4.2	5960 ± 610	75 ± 10	79.0 ± 3.2	fold lower release potency at SERT ([7]; compared to release potency at NET and DAT): 50 fold; % maximum release ± sem, hSERT [3H]5-HT [7]: 65.0 ± 0.6%; EC50 [8]: 400 ± 120 nM
CCCC(NC)C(=O)c1ccc(C)cc1 (centres unmarked) [4-MPD, 4-methyl pentedrone]		1450 ± 310	307 ± 61	3390 ± 480			fold decrease in hDAT affinity [1]: 4- to 5 fold; fold increase in hSERT uptake potency [6]: 15- to 17 fold
CCCC(C(=O)c1ccc2c(c1)CCCC2)N1CCCC1 (stereo not drawn) [TH-PVP, 3’,4’-tetramethylene-α-pyrrolidinovalerophenone]	0.087	3090 ± 300	2130 ± 81	6950 ± 340	<1	<1	releasing efficacy at hSERT [7]: minimal to no releasing efficacy; % maximum release ± sem, hSERT [3H]5-HT [7]: <1%; releasing efficacy at hNET [8]: minimal to no releasing efficacy; EC50 [8]: > 10000 nM; releasing efficacy at hDAT [9]: minimal to no releasing efficacy; selectivity for SERT over DAT (uptake potency) [6]: 12 fold
CCNC(C)Cc1ccc2ccoc2c1 (stereo not drawn) [6-EAPB, N-ethyl-α-methyl-6-benzofuranethanamine]	1.4	89 ± 22	42 ± 14	772 ± 44			
CCCC(NCC)C(=O)c1ccc2c(c1)OCO2 (centres unmarked) [N-Et pentylone, N-ethyl pentylone]	8.4	102 ± 15	114 ± 29	2380 ± 620	15.6 ± 8.4	<1	% maximum release ± sem, hSERT [3H]5-HT [7]: 7.2 ± 1.4%; fold increase in hDAT/hSERT selectivity ([5]; compared to pentylone): ~ 2 fold
CC(C(=O)c1ccc2c(c1)OCO2)N(C)C (centres unmarked) [Dimethylone, bk-MDDMA]	>4.1	4210 ± 270	4200 ± 880	> 10000	9.9 ± 2.2	<1	% maximum release ± sem, hSERT [3H]5-HT [7]: <1%; EC50 [8]: > 10000 nM
CCCNC(CCC)C(=O)c1ccccc1 (stereo not drawn) [N-propyl pentedrone, α-propylaminopentiophenone]	330	389 ± 67	306 ± 79	3760 ± 820			
